Results from US20040254162A1, “Oxazolidinone derivatives as antimicrobials” (priority 2001, published 2004).
Converted amounts (≈) assume the structure as drawn.

Assays:
Prevotella bivia = experiment: Agar dilution MIC, anaerobes; format: cell-based; details: Prevotella bivia; single isolate, anaerobic agar dilution; read-out: MIC Prevotella bivia
MRSE 879 = experiment: Broth MIC, MRSE 879; format: cell-based; details: Staphylococcus epidermidis; MRSE 879; read-out: broth MIC
Clostridium difficile = experiment: Agar dilution MIC, anaerobes; format: cell-based; details: Clostridioides difficile, single isolates, anaerobic agar dilution; read-out: MIC Clostridium difficile
MRSA 33 = experiment: MIC, agar incorporation method; details: Staphylococcus aureus, MRSA, read-out: MIC MRSA 33
E. faecalis = experiment: Summary of in vitro activity (MIC); details: Enterococcus faecalis
[1] = tested on: Mycobacterium tuberculosis; experiment: microbe, parasite or virus in culture; details: 504 h
S. pneum AB 34 = experiment: MIC, agar incorporation method; details: Streptococcus pneumoniae, AB34, read-out: MIC S. pneum AB 34
Eubacterium leutum = experiment: Agar dilution MIC, anaerobes; format: cell-based; details: Eubacterium, single isolates, anaerobic agar dilution; read-out: MIC Eubacterium leutum
[2] = tested on: Peptostreptococcus tetradius; experiment: Agar dilution MIC, anaerobes; format: cell-based; details: Anaerococcus tetradius, single isolates, anaerobic agar dilution; read-out: MIC Peptostreptococcus tetradius
MRSA 562 = experiment: In vivo activity against MRSA 562 (ED50); set-up: species or system Methicillin Resistant Staphylococcus aureus; details: PO; MRSA 562 infection
Bacteroides fragilis = experiment: Agar dilution MIC, anaerobes; format: cell-based; details: Bacteroides fragilis, single isolates, anaerobic agar dilution; read-out: MIC Bacteroides fragilis
anaerobic bacteria = experiment: Agar dilution method for anaerobic bacteria, summary; format: cell-based

Q: With `CC(=O)NC[C@H]1CN(c2ccc(N3CCOCC3)c(F)c2)C(=O)O1` [Linezolid] as the compound, how does the MIC (Prevotella bivia) read?
A: The MIC was 1 µg/mL (≈ 2.96 µM).

Q: And the MIC (MRSE 879)?
A: The MIC was 2 µg/mL (≈ 5.93 µM).

Q: What about the MIC (Clostridium difficile) of the same compound?
A: The MIC was 2 µg/mL (≈ 5.93 µM).

Q: What about the MIC (MRSA 33) of the same compound?
A: The MIC was 2 µg/mL (≈ 5.93 µM).

Q: And the MIC50 (E. faecalis)?
A: The MIC50 was 4 µg/mL (≈ 11.9 µM).

Q: What about the MIC90 (E. faecalis) of the same compound?
A: Its MIC90 is 16 µg/mL (≈ 47.4 µM).

Q: And the MIC (E. faecalis; read-out: Geometric Mean of in vitro activity (MIC))?
A: Its MIC is 4 µg/mL (≈ 11.9 µM).

Q: And the MIC50 [1]?
A: Its MIC50 is 8 µg/mL (≈ 23.7 µM).

Q: What about the MIC90 [1] of the same compound?
A: The MIC90 was 64 µg/mL (≈ 190 µM).

Q: And the MIC (S. pneum AB 34)?
A: The MIC was 4 µg/mL (≈ 11.9 µM).

Q: What about the MIC (Eubacterium leutum) of the same compound?
A: Its MIC is 1 µg/mL (≈ 2.96 µM).

Q: What about the MIC [2] of the same compound?
A: Its MIC is 0.5 µg/mL (≈ 1.48 µM).

Q: And the “ED50 (mg/kg body weight) PO” value (MRSA 562)?
A: Its value is 4.56 mg/kg body weight.

Q: And the MIC (Bacteroides fragilis)?
A: The MIC was 4 µg/mL (≈ 11.9 µM).

Q: What about the MIC50 (anaerobic bacteria; 48 h) of the same compound?
A: Its MIC50 is 1 µg/mL (≈ 2.96 µM).

Q: And the MIC90 (anaerobic bacteria; 48 h)?
A: The MIC90 was 4 µg/mL (≈ 11.9 µM).

Q: And the “Geometric Mean” value (anaerobic bacteria; anaerobes)?
A: Its value is 1.134 µg/mL.

Q: What about the “MIC Range” value (anaerobic bacteria; anaerobes) of the same compound?
A: Its value is 0.25 to 4 µg/mL.
